Legend:
[1] = system: succinoxidase system of beef heart mitochondria; assay: CoQ activity: restoring succinoxidase activity of pentane-extracted beef heart mitochondria (manometric); format: biochemical; design: key to CoQ10 Act. Index: activity index relative to CoQ10 standard; settings: for Activation at 400 nMoles %: 400 nmoles of analog, relative to the response to 400 nmoles CoQ10; for Maximum Activation: 400 nm of analog per flask, percent of the response to CoQ4; for CoQ10 Act. Index: calculated from relative effectiveness, activity in terms of that of CoQ10; for Estimated nMoles Required for 50% Activation: level required to reinstate approximately 50% of maximum succinoxidase activity, 0.65-0.85 mg PEBHM; for Relative Effectiveness: molar amounts of analog and CoQ4 required to restore the same level of succinoxidase to PEBHM, relative to CoQ4; for effectiveness / utilization in the succinoxidase mitochondrial system: interpretation of Table II
Experimental: The CoQ activity of each analog was assessed by examining the ability of the analog to stimulate the succinoxidase activity of beef-heart mitochondria (BHM) from which the naturally occurring CoQ had been removed by pentane extraction. (Table I) Beef heart mitochondria were prepared by the method of Smith (Methods Enzymol., 10, 81 (1967). The pentane extraction was conducted as described by Szarkowska (Arch. Biochem. Biophys., 113, 519 (1966); PEBHM was frozen and used within 10 days of preparation, since pentane extraction decreases the stability of BHM. Succinoxidase activity was determined manometercally, using a Gilson differential respirometer (Iwamoto, Y., Hansen, I. L., Porter, T. H., and Folkers, K., Biochem. Biophys. Res. Comm., 58, 633 (1974), and is reported as […] of oxygen per minute per milligram of protein. A commercial soybean phospholipid preparation (Asolectin), dispersed by sonication (Fleischer, S. and Fleischer, B., Methods Enzymol., 10, 421 (1967), was used to provide phospholipid micelles, and test substances were added as solutions in ethanol. Within Table I are listed the CoQ activities of the analogs and selected reference compounds. The CoQ10 Activity Index is a measure of the effectiveness of the analogs, relative to the standard, in stimulating a submaximal response of succinoxidase activity. Specific activity of the succinoxidase system in response to stimulation by exogenous CoQ10 is given in footnote a of the Table. The quantity of analog to be added was chosen to provide a level of succinoxidase activity corresponding to the nearly linear portion of the activity: dose curve, in which succinoxidase activity stimulated is approximately proportional to the level of analog used. The second column lists the nanomolar quantity of analog required to provide a stimulation of about half of the maximum response. The relative response of the succinoxidase system to 400 nmol of each analog is listed in the third column of the Table. This level of analog is sufficient to insure significant excess over the stoichiometric amount, and maximum response to CoQ4 is obtained at one-tenth to one-twentieth of this dose level. The response to 400 nmol of CoQ10 is lower than is the response to other components listed. The very long side-chain of CoQ10, the natural coenzyme, may hinder the transport of exogenous CoQ10 to the active site.

[2] = system: nutritionally deficient children who were anemic; settings: Majaj and Folkers 1968; cited from earlier work
[3] = system: periodontal disease; settings: Matsummura et al. 1973; cited from earlier work
[4] = system: nutritionally dystrophic rabbit; settings: Farley et al. 1968; intravenous administration; cited from earlier work
[5] = literature / general knowledge; cited from earlier work
[6] = system: oxidative phosphorylation at site I (ETPH particles); assay: Assay of CoQ and analogs for oxidative phosphorylation at site I with ETPH particles; format: biochemical; design: Δ NADH / Δ G6P: unit not given here; settings: for biochemical effectiveness in the site I assay system: compared with CoQ1
Experimental: Assays were performed with 200 μg of ETPH particles as described by
Schatz and Racker (J. Biol. Chem., 241, 1429 (1966)). The concentration o
the CoQ compounds was 0.12 mM. Rotenone was added at 2 μM

[7] = Solubility in water; format: physicochemical; settings: in the site I assay system
[8] = molecular target: complex III (Bos taurus, UniProt P00157+P13272); assay: Reduction of cytochrome c by reduced CoQ and analogs catalyzed by complex III; format: biochemical; settings: for response of complex III system to the reduced analog as substrate: after reduction and extraction
Experimental: Reduction of cytochrome c was measured at 550-540 nm. The reaction mixtur
contained in 1.0 ml: […] KP1, pH 7.5; 0.05 mM EDTA; 8 μM
cytochrome c1; 10 μM reduced CoQ or analog and 2 μg complex
III. When indicated, antimycin A was added to the assay medium at 1
μg/ml. An extinction coefficient of 19 mM^-^1 was used for […]

[9] = Chemical stability; format: physicochemical; settings: compared with CoQ1 and CoQ2
[10] = human; cited from earlier work
[11] = CoQ or analog 0.12 nM (footnote 0.12 mM)

Row | Structure (SMILES) | Activation at 400 nMoles % [1] [%] | Maximum Activation [1] [%] | CoQ10 Act. Index [1] | Estimated nMoles Required for 50% Activation [1] [nmol] | Relative Effectiveness [1] [%] | hematological activity [2] | therapeutic activity, saving the life of the dying dystrophic rabbit [4] | biochemical effectiveness in the site I assay system [6] | solubility in water [7] | response of complex III system to the reduced analog as substrate [8] | effectiveness / utilization in the succinoxidase mitochondrial system [1] | further results
1 | COC1=C(OC)C(=O)C(C/C=C(\C)CCCC(C)CCCC(C)CCCC(C)C)=C(C)C1=O (stereo not shown) [H6 CoQ4, hexahydrocoenzyme Q4, reference compound] | 121 | 95 | 2.2 | 19.4 | 10.3 | showed hematological activity |  |  |  |  |  | treatment of periodontal disease [3]: enhanced treatment of periodontal disease
2 | COC1=C(OC)C(=O)C(C/C=C(\C)CC/C=C(\C)CCC=C(C)C)=C(C)C1=O [CoQ3, coenzyme Q3] |  |  |  |  |  |  | did not save the life of the dying dystrophic rabbit |  |  |  |  | chemical stability of isoprenoid quinones [5]: relative chemical instability
3 | COC1=C(OC)C(=O)C(C/C=C(\C)CC/C=C(\C)CC/C=C(\C)CC/C=C(\C)CC/C=C(\C)CCC=C(C)C)=C(C)C1=O [CoQ6, reference compound] |  |  |  |  |  |  |  | not adequate | somewhat more soluble |  |  | 
4 | CCCCCC1=C(C)C(=O)C(OC)=C(OC)C1=O [Pentyl, 2,3-Dimethoxy-5-methyl-6-pentyl-1,4-benzoquinone] | 110 | 86 | 1.2 | 35.1 | 5.7 |  |  | as biochemically effective as CoQ1 |  | excellent substrates | about as little effective as coenzyme Q10 itself | P/NADH Ratio [6, 11]: 0.44; Δ G6P [6, 11]: 0.036; Δ NADH [6, 11]: 0.082; μmoles NADH /min/mg ([6]; CoQ or analog 0.12 nM (footnote 0.12 mM), 200 μg ETPH particles, no rotenone): 0.47 μmoles NADH /min/mg; μmoles NADH min/mg +Rotenone ([6]; CoQ or analog 0.12 nM (footnote 0.12 mM), rotenone 2 μM): 0.02 μmoles NADH min/mg; % Inhibition by Rotenone ([6]; rotenone 2 μM, CoQ or analog 0.12 nM (footnote 0.12 mM)): 95%; nMoles Cytochrome c Reduced/min ([8]; 10 μM reduced CoQ or analog, 2 μg complex III, 8 μM cytochrome c): 14.6 nmol/min; Non-enzymatic Rate of Cytochrome c Reduction ([8]; 10 μM reduced CoQ or analog, blank without complex III): 0.2 nmol/min; % Inhibition by Antimycin A ([8]; antimycin A 1 μg/ml): 100%; chemical stability ([9]; listed as 6-n-pentyl): superior to CoQ1 and CoQ2 in chemical stability; chemical stability ([9]; listed as PB): apparent greater stability
5 | COC1=C(OC)C(=O)C(C/C=C(\C)CC/C=C(\C)CC/C=C(\C)CC/C=C(\C)CC/C=C(\C)CC/C=C(\C)CC/C=C(\C)CC/C=C(\C)CC/C=C(\C)CCC=C(C)C)=C(C)C1=O [CoQ10, coenzyme Q10, reference compound] | 100 | 78 | 1.0 | 41.7 | 4.8 | showed hematological activity | failed to elicit therapeutic activity |  | too insoluble |  | poorly utilized | Specific Activity of the enzyme system ([1]; 10 nmoles CoQ10/flask): 0.160 μatm O2 /mg protein min; Specific Activity of the enzyme system ([1]; 20 nmoles CoQ10/flask): 0.248 μatm O2 /mg protein min; Specific Activity of the enzyme system ([1]; 30 nmoles CoQ10/flask): 0.298 μatm O2 /mg protein min; Specific Activity of the enzyme system ([1]; 40 nmoles CoQ10/flask): 0.344 μatm O2 /mg protein min; Specific Activity of the enzyme system ([1]; 100 nmoles CoQ10/flask): 0.488 μatm O2 /mg protein min; Activation at 3.46 nMoles ([1]; 3.46 (nMoles) CoQ10): no activation; oral absorption [10]: inefficient
6 | CCCCCCCCCCCCCCCC1=C(C)C(=O)C(OC)=C(OC)C1=O [Pentadecyl, 2,3-Dimethoxy-5-methyl-6-pentadecyl-1,4-benzoquinone] | 121 | 94 | 4.4 | 9.5 | 21 |  |  | not suitable or as effective | lower solubility in water | virtually unresponsive |  | inhibition of complex III system [8]: no inhibition
